Cc1c(OCC(F)(F)F)ccnc1CS(=O)c1nc2ccccc2[nH]1 (stereo unspecified)
solubility (mole fraction)
Conditions | in 2-butanone | in MIBK | in acetone | in ethyl acetate | in isobutyl acetate | in isopropanol | in n-butanol | in n-butyl acetate | in n-pentanol | in n-propanol
283.15 K | 0.00289 | 0.0013 | 0.00249 | 0.00137 | 0.000784 | 0.00082 | 0.0012 | 0.000987 | 0.00138 | 0.00166
288.15 K | 0.00349 | 0.00154 | – | 0.00164 | 0.000965 | 0.000922 | 0.00166 | 0.0012 | 0.00184 | 0.00206
290.15 K | – | – | 0.0031 | – | – | – | – | – | – | –
293.15 K | 0.00412 | 0.00183 | – | 0.002 | 0.00117 | 0.00124 | 0.00215 | 0.00144 | 0.00227 | 0.0026
297.15 K | – | – | 0.00395 | – | – | – | – | – | – | –
298.15 K | 0.00489 | 0.00216 | – | 0.00245 | 0.00136 | 0.00161 | 0.0027 | 0.00172 | 0.00281 | 0.00314
303.15 K | 0.00578 | 0.00255 | – | 0.00291 | 0.00161 | 0.00202 | 0.00336 | 0.00195 | 0.00344 | 0.00388
304.15 K | – | – | 0.00494 | – | – | – | – | – | – | –
308.15 K | 0.00697 | 0.00307 | – | 0.00343 | 0.00193 | 0.00261 | 0.00419 | 0.00232 | 0.00412 | 0.00468
311.15 K | – | – | 0.00626 | – | – | – | – | – | – | –
313.15 K | 0.0083 | 0.00362 | – | 0.00416 | 0.00228 | 0.00333 | 0.00515 | 0.00271 | 0.00518 | 0.00588
318.15 K | – | – | 0.00801 | 0.00469 | – | 0.00422 | – | – | – | –
